In one test the test system is H3255. Nature of the test: Non Small Cell Lung Cancer proliferation assay (Alamar Blue reduction), H3255. The test is classed as cell-based, human. The procedure, abridged: (§1)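 Compounds are tested at 1% DMSO final concentration against adherent NSCLC cells for 48 h at 37° C, with cytotoxicity measured by Alamar Blue reduction after a further 48 h incubation.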
(Resazurin is reduced to fluorescent resorufin, in cell work by metabolically active cells.)

The test system of another test is H1650. Nature of the test: Non Small Cell Lung Cancer proliferation assay (Alamar Blue reduction), H1650. The test is classed as cell-based, human. Conditions: Homo sapiens. Summed up:
as §1

Another test has as its system H2444. Nature of the test: Dose response study (Alamar Blue), H2444. The test is classed as cell-based. The note with it: Homo sapiens, read-out: IC50 H2444.
A further test deals with H820. Nature of the test: Dose response study (Alamar Blue), H820. The test is classed as cell-based. The note with it: Homo sapiens, read-out: IC50 H820.
Test [1] relates to HPL1D (human peripheral lung epithelial) cell line. Nature of the test: Cell proliferation / dose response (Alamar Blue), HPL1D. The test is classed as cell-based. Conditions: read-out: IC50 HPL1D. The procedure, abridged: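 Dose–response proliferation was run in HPL1D human peripheral lung epithelial cells. Compound treatment lasted 48 h at 37 C, followed by alamar blue for a further 48 h. Alamar blue reduction was the read-out.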

For another test, the system named is H358. Nature of the test: Non Small Cell Lung Cancer proliferation assay (Alamar Blue reduction), H358. The test is classed as cell-based. Conditions: Homo sapiens. Summed up: as §1
The next test relates to H2122. Nature of the test: Dose response study (Alamar Blue), H2122. The test is classed as cell-based. The note with it: Homo sapiens, read-out: IC50 H2122.
A further test concerns H2030. Nature of the test: Non Small Cell Lung Cancer proliferation assay (Alamar Blue reduction), H2030. The test is classed as cell-based, human. Conditions: Homo sapiens. Summed up:
as §1

The subject of the next test is H1975. Nature of the test: Non Small Cell Lung Cancer proliferation assay (Alamar Blue reduction), H1975. The test is classed as cell-based, human. Summed up: as §1
The next test relates to H23. Nature of the test: Dose response study (Alamar Blue), H23. The test is classed as cell-based. The note with it: Homo sapiens, read-out: IC50 H23.
The mark [2] stands for this setting: Homo sapiens, NCI-H3255, 48 h, H3255, 12 point doubling dilution 10 uM to 5 nM, 48 h treatment, alamar blue additional 48 h, read-out: IC50 H3255.
[3] abbreviates: NCI-H1650, 48 h, H1650, 12 point doubling dilution 10 uM to 5 nM, 48 h treatment, alamar blue additional 48 h, read-out: IC50 H1650.
The mark [4] stands for this setting: NCI-H2030, 48 h, H2030, 12 point doubling dilution 10 uM to 5 nM, 48 h treatment, alamar blue additional 48 h, read-out: IC50 H2030.
Setting [5] is: Homo sapiens, NCI-H1975, 48 h, H1975, 12 point doubling dilution 10 uM to 5 nM, 48 h treatment, alamar blue additional 48 h, read-out: IC50 H1975.
[6] abbreviates: Homo sapiens, NCI-H3255, dose response 10 M to 5 nM, IC50, read-out: Dose Response (uM) H3255.
[7] abbreviates: NCI-H1650, dose response 10 M to 5 nM, IC50, read-out: Dose Response (uM) H1650.
Setting [8] is: NCI-H2444, H2444, 12 point doubling dilution 10 uM to 5 nM, 48 h treatment, alamar blue additional 48 h.
The mark [9] stands for this setting: NCI-H820, H820, 12 point doubling dilution 10 uM to 5 nM, 48 h treatment, alamar blue additional 48 h.
Setting [10] is: HPL1D, 12 point doubling dilution 10 uM to 5 nM, 48 h treatment, alamar blue additional 48 h.
Setting [11] is: NCI-H358, H358, 12 point doubling dilution 10 uM to 5 nM, 48 h treatment, alamar blue additional 48 h, read-out: IC50 H358.
Where [12] appears, read: NCI-H358, read-out: Dose Response (uM) H358.
Setting [13] is: NCI-H2122, H2122, 12 point doubling dilution 10 uM to 5 nM, 48 h treatment, alamar blue additional 48 h.
Where [14] appears, read: NCI-H2030, dose response 10 M to 5 nM, IC50, read-out: Dose Response (uM) H2030.
Setting [15] is: Homo sapiens, NCI-H1975, dose response 10 M to 5 nM, IC50, read-out: Dose Response (uM) H1975.
[16] abbreviates: NCI-H23, H23, 12 point doubling dilution 10 uM to 5 nM, 48 h treatment, alamar blue additional 48 h.

SMILES strings stand for the structures. Where two headings read alike, the source gives them in different places.

Usually inhibition stands for the change of the read-out against control, counted positive when it falls.

Regarding `Cc1cccc(-n2ncc(Cl)c(Cl)c2=O)c1` [compound 104122, 4,5-dichloro-2-m-tolyl-2H-pyridazin-3-one], the IC50 is 0.87 µM in the test on H3255 (setting [2]); 0.38 µM with H3255 (dose response 10 M to 5 nM, IC50, read-out: Dose Response (uM) H3255); 1.41 µM in the test on H1650 (setting [3]); 240 nM in the test with H2444 (NCI-H2444, 48 h); 180 nM in the test on H820 (NCI-H820, 48 h); 280 nM in test [1] (48 h). Further, the IC50 was found to be 0.41 µM in the test on H358 (NCI-H358, 48 h, H358, 12 point doubling dilution 10 uM to 5 nM, 48 h treatment, alamar blue additional 48 h, read-out: IC50 H358); 1150 nM with H2122 (NCI-H2122, 48 h); 0.29 µM in the test on H2030 (setting [4]); 0.29 µM in the test on H1975 (setting [5]); 0.14 µM in the test on H1975 (dose response 10 M to 5 nM, IC50, read-out: Dose Response (uM) H1975); 210 nM in the test with H23 (NCI-H23, 48 h). Further, the inhibition at 10 µM in the test on H3255 (Homo sapiens, NCI-H3255, primary screening, 10 μM compound in 1% DMSO (v/v), read-out: percentage inhibition H3255) was found to be 98%; in the test on H1650 (NCI-H1650, primary screening, 10 μM compound in 1% DMSO (v/v), read-out: percentage inhibition H1650), 48%; in the test on H2030 (NCI-H2030, primary screening, 10 μM compound in 1% DMSO (v/v), read-out: percentage inhibition H2030), 101%; in the test with H1975 (Homo sapiens, NCI-H1975, primary screening, 10 μM compound in 1% DMSO (v/v), read-out: percentage inhibition H1975), 104%.
As for `O=c1c(Cl)c(Cl)cnn1-c1ccc2c(c1)CCC2` [compound 267066], the IC50 in the test on H3255 (setting [2]) is 4.61 µM; in the test on H3255 (setting [6]), 1.35 µM; in the test with H1650 (setting [3]) it was over 10 µM; in the test with H1650 (setting [7]), 1.69 µM; in the test on H2444 (setting [8]), 1530 nM; in the test with H820 (setting [9]) it was 2800 nM. Moreover, the IC50 in test [1] (setting [10]) worked out at 1660 nM; with H358 (setting [11]), 2.81 µM; with H358 (setting [12]) it was 0.42 µM; in the test with H2122 (setting [13]), 8720 nM; in the test with H2030 (setting [4]), 2.34 µM; in the test on H2030 (setting [14]), 1.41 µM. For the same molecule, the IC50 with H1975 (setting [5]) stood at 2.23 µM; with H1975 (setting [15]) it was 0.19 µM; with H23 (setting [16]), 2040 nM.
Regarding `O=c1c(Cl)c(Cl)cnn1-c1ccc(C(F)(F)F)cc1` [compound 267060], the IC50 in the test on H3255 (setting [2]) turned out to be 2.29 µM; in the test with H3255 (setting [6]) it was 2.27 µM; with H1650 (setting [3]) it was 3.95 µM; in the test with H1650 (setting [7]), 3.92 µM; in the test with H2444 (setting [8]), 1260 nM; in the test with H820 (setting [9]), 1480 nM. The IC50 in test [1] (setting [10]) was 560 nM; with H358 (setting [11]) it was 1.39 µM; with H358 (setting [12]), 0.29 µM; in the test with H2122 (setting [13]), 6000 nM; in the test with H2030 (setting [4]), 1.11 µM; with H2030 (setting [14]), 1.09 µM. Further, the IC50 in the test on H1975 (setting [5]) turned out to be 1.27 µM; in the test with H1975 (setting [15]), 0.69 µM; in the test on H23 (setting [16]), 1070 nM.
For the molecule `Cc1cc(C)cc(-n2ncc(Cl)c(Cl)c2=O)c1` [compound 257020], the IC50 was 1.35 µM with H3255 (setting [2]); 0.92 µM in the test on H3255 (setting [6]); 2.58 µM in the test with H1650 (setting [3]); 2.1 µM in the test on H1650 (setting [7]); 400 nM in the test with H2444 (setting [8]); 450 nM in the test on H820 (setting [9]). Besides, the IC50 in test [1] (setting [10]) turned out to be 410 nM; in the test on H358 (setting [11]), 0.62 µM; in the test with H358 (setting [12]) it was 0.22 µM; in the test on H2122 (setting [13]) it was 2210 nM; in the test on H2030 (setting [4]) it was 0.57 µM; in the test with H2030 (setting [14]), 0.56 µM. For the same molecule, the IC50 in the test on H1975 (setting [5]) was 0.58 µM; with H1975 (setting [15]), 0.27 µM; in the test with H23 (setting [16]), 460 nM.

These data come from patent US20100210649A1, “PYRIDAZINONES AND FURAN-CONTAINING COMPOUNDS” (Sloan-Kettering Institute for Cancer Research, priority 2006, published 2010).
